From paper PMC6196558, “The nitrilase PtNIT1 catabolizes herbivore-induced nitriles in Populus trichocarpa” (BMC Plant Biology, 2018)

T1: PtNIT1 (Populus trichocarpa, UniProt A0A2Z4EGE4)
T1 construct: tag cleavage not mentioned
T1 sequence (A0A2Z4EGE4 1-377): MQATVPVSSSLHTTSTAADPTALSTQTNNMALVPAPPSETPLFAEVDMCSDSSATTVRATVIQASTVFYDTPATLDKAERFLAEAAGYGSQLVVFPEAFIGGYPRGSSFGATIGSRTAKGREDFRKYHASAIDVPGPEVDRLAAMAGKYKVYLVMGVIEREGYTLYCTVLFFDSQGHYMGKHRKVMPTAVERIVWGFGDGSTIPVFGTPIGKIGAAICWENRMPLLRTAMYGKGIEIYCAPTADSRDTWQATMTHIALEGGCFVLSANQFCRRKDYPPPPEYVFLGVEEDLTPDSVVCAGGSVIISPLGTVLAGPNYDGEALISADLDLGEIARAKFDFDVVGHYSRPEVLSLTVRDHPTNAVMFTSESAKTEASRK

B1: PtNIT1 (Populus trichocarpa) (protein)
chain: T1 sequence (A0A2Z4EGE4 1-377)
notes: tag cleavage not mentioned

Experiments:
PtNIT1 = target: T1, PtNIT1; test: LC-MS/MS product formation; type: biochemical; settings: potassium phosphate pH 7.2, 32 °C (standard assay)
[1] = substrate: N#CCc1c[nH]c2ccccc12; test: LC-MS/MS product formation; type: biochemical, Populus trichocarpa; settings: potassium phosphate pH 7.2, 32 °C (standard assay)

| Molecule | Km (PtNIT1) | Km [1] |
| --- | --- | --- |
| N#CCc1ccccc1 [benzyl cyanide] | 24.7 ± 1.8 mM | – |
| N#CC[C@H](N)C(=O)O [β-cyanoalanine] | 1.2 ± 0.1 mM | – |
| B1 | – | 10.0 ± 1.3 mM |
